This passage reports MIC80 and MIC50 results from patent US9617216B2, “Antifungal oxodihydropyridinecarbohydrazide derivative” (Daewoong Pharmaceutical Co., Ltd., priority 2013, dated 2017).

Each structure is given as a SMILES string. ≈ marks a conversion by molar mass, not a printed value.

The subject of one assay is Candida albicans. The assay is described as follows: In vitro antifungal activity test (MIC), Candida albicans. The format is cell-based. The conditions noted are these: Candida albicans; concentration at which growth is inhibited by 80% vs negative control; 35° C., 24 hours, RPMI 1640, alama blue. As for the experimental part:
(§1) The antifungal activities of the compounds of the present invention were evaluated using Candida albicans as yeast fungus, and Aspergillus fumigatus as a filamentous fungus. The above fungi used were all purchased from American Type Culture Collection (ATCC). The strains used in the experiment were inoculated into a Sabouraud dextrose agar medium, and then cultured at 35° C. for a sufficient period of time, e.g., 24 hours for Candida albicans, and about 7 days for Aspergillus fumigatus. As for Candida albicans, about 5 to 7 single colonies were taken from the cultured medium, sufficiently suspended in 1 ml of 0.85% sterile saline solution, and adjusted to have an optical density of 0.095 to 0.107 at 530 nm. A preparation of a strain diluent was diluted in Roswell park memorial institute (RPMI) 1640 medium at a 1:10 ratio, and the resultant was diluted again at a 1:100 ratio to obtain an inoculation preparation for Candida albicans with a concentration of 1.0×10^3 to 5.0×10^3 CFU/mL. As for Aspergillus fumigatus, the cultured Sabouraud dextrose agar was added with 1 mL of 0.2% Tween 20 diluted with 0.85% sterile saline solution, and then the plate was shaken to detach conidium from the plate. The solution collected from the plate surface was transferred into a sterile tube, and placed at room temperature for 5 minutes to deposit heavy substances. The resulting supernatant was transferred into the sterile tube, sufficiently suspended for about 15 seconds, and prepared a strain diluent with a concentration of 0.4×10^6 to 5.0×10^6 CFU/mL using a hemocytometer. The thus prepared strain diluent was diluted in RPMI 1640 medium at a 1:100 ratio to obtain an inoculation preparation for Aspergillus fumigatus. Candida albicans was cultured at 35° C. for 24 hours and Aspergillus fumigatus was cultured at 35° C. for 48 hours, and the concentrations, at which growth is inhibited by 80% or 50% compared to a negative control group, were determined using alama blue color developing reagent. All experiments were repeated twice for each concentration, and the results of antifungal activities (MIC80 MIC50 μg/mL) are shown in Tables 1 to 2.

For another assay, the system named is Aspergillus fumigatus. The assay is described as follows: In vitro antifungal activity test (MIC), Aspergillus fumigatus. The format is cell-based. As to conditions: Aspergillus fumigatus; concentration at which growth is inhibited by 50% vs negative control; 35° C., 48 hours, RPMI 1640, alama blue. The procedure: as §1

For the compound `Cn1cc(C(=O)NNc2ccccc2F)ccc1=O` [Example 1, N′-(2-fluorophenyl)-1-methyl-6-oxo-1,6-dihydropyridine-3-carbohydrazide], in the assay on Candida albicans, the MIC80 is 0.05 µg/mL (≈ 0.191 µM). This compound yielded an MIC50 against Aspergillus fumigatus of 0.1 µg/mL (≈ 0.383 µM).
In the assay with Candida albicans, `Cn1cc(C(=O)NNc2ccc(S(=O)(=O)C(F)(F)F)cc2)ccc1=O` [Example 10, 1-methyl-6-oxo-N′-(4-((trifluoromethyl)sulfonyl)phenyl)-1,6-dihydropyridine-3-carbohydrazide] came in with an MIC80 of 0.04 µg/mL (≈ 0.107 µM). The compound also yielded an MIC50 in the assay with Aspergillus fumigatus of 0.1 µg/mL (≈ 0.266 µM).
In the assay on Candida albicans, `Cn1cc(C(=O)NNc2ccc(F)cc2F)ccc1=O` [Example 11, N′-(2,4-difluorophenyl)-1-methyl-6-oxo-1,6-dihydropyridine-3-carbohydrazide] showed an MIC80 of 0.03 µg/mL (≈ 0.107 µM). Moreover, in the assay on Aspergillus fumigatus, the MIC50 was determined as 0.05 µg/mL (≈ 0.179 µM).
Turning to `Cn1cc(C(=O)NNc2ccc(Cl)cc2Cl)ccc1=O` [Example 15, N′-(2,4-dichlorophenyl)-1-methyl-6-oxo-1,6-dihydropyridine-3-carbohydrazide], in the assay with Candida albicans, the MIC80 was 0.03 µg/mL (≈ 0.0961 µM). The MIC50 against Aspergillus fumigatus was 1.95 µg/mL (≈ 6.25 µM).
The compound `Cn1cc(C(=O)NNc2ccc(F)nc2)ccc1=O` [Example 18, N′-(6-fluoropyridine-3-yl)-1-methyl-6-oxo-1,6-dihydropyridine-3-carbohydrazide] yielded an MIC80 with Candida albicans of 0.03 µg/mL (≈ 0.114 µM). In addition, in the assay on Aspergillus fumigatus, the MIC50 amounted to 0.4 µg/mL (≈ 1.53 µM).
`Cn1cc(C(=O)NNc2cccc(F)c2)cc(Cl)c1=O` [Example 24, 5-chloro-N′-(3-fluorophenyl)-1-methyl-6-oxo-1,6-dihydropyridine-3-carbohydrazide] registered an MIC80 with Candida albicans of 0.06 µg/mL (≈ 0.203 µM). For the same compound, the MIC50 in the assay on Aspergillus fumigatus stood at 1.8 µg/mL (≈ 6.09 µM).
In the assay on Candida albicans, `Cn1cc(C(=O)NNc2cccc(Cl)c2)cc(Cl)c1=O` [Example 26, 5-chloro-N′-(3-chlorophenyl)-1-methyl-6-oxo-1,6-dihydropyridine-3-carbohydrazide] displayed an MIC80 of 0.06 µg/mL (≈ 0.192 µM). In addition, in the assay on Aspergillus fumigatus, the MIC50 came to 1 µg/mL (≈ 3.2 µM).
In turn, `O=C(NNc1cccc(F)c1)c1c(Cl)cc(=O)n2c1CCC2` [Example 33, 7-chloro-N′-(3-fluorophenyl)-5-oxo-1,2,3,5-tetrahydroindolizine-8-carbohydrazide] showed an MIC80 in the assay on Candida albicans of 0.13 µg/mL (≈ 0.404 µM). In the assay on Aspergillus fumigatus, this compound gave an MIC50 of 0.5 µg/mL (≈ 1.55 µM).
With `O=C(NNc1cccc(F)c1)c1ccc(=O)n(CCc2cccc(Cl)c2)c1` [Example 57, 1-(3-chlorophenethyl)-N′-(3-fluorophenyl)-6-oxo-1,6-dihydropyridine-3-carbohydrazide], the MIC80 against Candida albicans is 0.08 µg/mL (≈ 0.207 µM).
`O=C(NNc1cccc(F)c1)c1ccc(=O)n(CCc2ccc(Cl)cc2)c1` [Example 58, 1-(4-chlorophenethyl)-N′-(3-fluorophenyl)-6-oxo-1,6-dihydropyridine-3-carbohydrazide] registered an MIC80 with Candida albicans of 0.08 µg/mL (≈ 0.207 µM).
Consider `O=C(NNc1cccc(F)c1)c1ccc(=O)n(CCc2ccccc2F)c1` [Example 59, 1-(2-fluorophenethyl)-N′-(3-fluorophenyl)-6-oxo-1,6-dihydropyridine-3-carbohydrazide], for which the MIC80 against Candida albicans is 0.14 µg/mL (≈ 0.379 µM).
On the same count and under the same terms, the same measure for `O=C(NNc1cccc(F)c1)c1ccc(=O)n(CCc2ccc(F)cc2)c1` [Example 60, 1-(4-fluorophenethyl)-N′-(3-fluorophenyl)-6-oxo-1,6-dihydropyridine-3-carbohydrazide]: 0.14 µg/mL (≈ 0.379 µM).
Still for that read-out and setting: the same measure for `O=C(NNc1cccc(F)c1)c1ccc(=O)n(CCOc2ccccc2F)c1` [Example 61, 1-(2-(2-fluorophenoxy)ethyl)-N′-(3-fluorophenyl)-6-oxo-1,6-dihydropyridine-3-carbohydrazide]: 0.08 µg/mL (≈ 0.208 µM).
Turning to `O=C(NNc1cccc(F)c1)c1ccc(=O)n(CCOc2ccc(Cl)cc2)c1` [Example 62, 1-(2-(4-chlorophenoxy)ethyl)-N′-(3-fluorophenyl)-6-oxo-1,6-dihydropyridine-3-carbohydrazide], in the assay on Candida albicans, the MIC80 was determined as 0.16 µg/mL (≈ 0.398 µM).
`O=C(NNc1cccc(F)c1)c1ccc(=O)n(CCOc2cccc(C(F)(F)F)c2)c1` [Example 63, N′-(3-fluorophenyl)-6-oxo-1-(2-(3-(trifluoromethyl)phenoxy)ethyl)-1,6-dihydropyridine-3-carbohydrazide] yielded an MIC80 with Candida albicans of 0.09 µg/mL (≈ 0.207 µM).
In the case of `O=C(NNc1cccc(F)c1)c1ccc(=O)n(CCOc2ccc(Cl)cc2Cl)c1` [Example 64, 1-(2-(2,4-dichlorophenoxy)ethyl)-N′-(3-fluorophenyl)-6-oxo-1,6-dihydropyridine-3-carbohydrazide], the MIC80 against Candida albicans is 0.09 µg/mL (≈ 0.206 µM).
Take `O=C(NNc1cccc(F)c1)c1ccc(=O)n(CCOc2ccc(F)cc2)c1` [Example 65, 1-(2-(4-fluorophenoxy)ethyl)-N′-(3-fluorophenyl)-6-oxo-1,6-dihydropyridine-3-carbohydrazide]: in the assay on Candida albicans, the MIC80 stood at 0.08 µg/mL (≈ 0.208 µM).
`O=C(NNc1cccc(F)c1)c1ccc(=O)n(CC2CCCCC2)c1` [Example 66, 1-(cyclohexylmethyl)-N′-(3-fluorophenyl)-6-oxo-1,6-dihydropyridine-3-carbohydrazide] yielded an MIC80 in the assay on Candida albicans of 0.27 µg/mL (≈ 0.786 µM).
On to `O=C(NNc1ccc(F)cc1)c1ccc(=O)n(CC2CCCCC2)c1` [Example 67, 1-(cyclohexylmethyl)-N′-(4-fluorophenyl)-6-oxo-1,6-dihydropyridine-3-carbohydrazide], for which the MIC80 in the assay on Candida albicans came out at 0.27 µg/mL (≈ 0.786 µM).
In turn, `O=C(Cn1cc(C(=O)NNc2cccc(F)c2)ccc1=O)c1ccc(C(F)(F)F)cc1` [Example 68, N′-(3-fluorophenyl)-6-oxo-1-(2-oxo-2-(4-(trifluoromethyl)phenyl)ethyl)-1,6-dihydropyridine-3-carbohydrazide] displayed an MIC80 in the assay with Candida albicans of 0.34 µg/mL (≈ 0.785 µM).
Compound `O=C(Cn1cc(C(=O)NNc2ccc(F)cc2)ccc1=O)c1ccc(C(F)(F)F)cc1` [Example 69, N′-(4-fluorophenyl)-6-oxo-1-(2-oxo-2-(4-(trifluoromethyl)phenyl)ethyl)-1,6-dihydropyridine-3-carbohydrazide] yielded an MIC80 against Candida albicans of 0.68 µg/mL (≈ 1.57 µM).
The same measure, in the same setting: the same measure for `O=C(Cn1cc(C(=O)NNc2ccc(F)c(F)c2)ccc1=O)c1ccc(C(F)(F)F)cc1` [Example 70, N′-(3,4-difluorophenyl)-6-oxo-1-(2-oxo-2-(4-(trifluoromethyl)phenyl)ethyl)-1,6-dihydropyridine-3-carbohydrazide]: 0.09 µg/mL (≈ 0.199 µM).
On the same count and under the same terms, in the case of `O=C(Cn1cc(C(=O)NNc2cccc(F)c2)ccc1=O)Nc1ccc(C(F)(F)F)cc1` [Example 71, 2-(5-(2-(3-fluorophenyl)hydrazinecarbonyl)-2-oxopyridine-1(2H)-yl)-N-(4-(trifluoromethyl)phenyl)acetamide] it was 0.04 µg/mL (≈ 0.0892 µM); in that of `O=C(Cn1cc(C(=O)NNc2ccc(F)cc2)ccc1=O)Nc1ccc(C(F)(F)F)cc1` [Example 72, 2-(5-(2-(4-fluorophenyl)hydrazinecarbonyl)-2-oxopyridine-1(2H)-yl)-N-(4-(trifluoromethyl)phenyl)acetamide], 0.09 µg/mL (≈ 0.201 µM).
In the case of `O=C(NNc1cccc(F)c1)c1ccc(=O)n(CCN2CCOCC2)c1` [Example 73, N′-(3-fluorophenyl)-1-(2-morpholinoethyl)-6-oxo-1,6-dihydropyridine-3-carbohydrazide], the MIC80 with Candida albicans stood at 0.56 µg/mL (≈ 1.55 µM).
For `O=C(NNc1ccc(F)cc1)c1ccc(=O)n(CCN2CCOCC2)c1` [Example 74, N′-(4-fluorophenyl)-1-(2-morpholinoethyl)-6-oxo-1,6-dihydropyridine-3-carbohydrazide], in the assay with Candida albicans, the MIC80 came to 0.56 µg/mL (≈ 1.55 µM).
For the compound `CN(C)C(=O)Cn1cc(C(=O)NNc2cccc(F)c2)ccc1=O` [Example 75, 2-(5-(2-(3-fluorophenyl)hydrazine-1-carbonyl)-2-oxopyridine-1(2H)-yl)-N,N-dimethylacetamide], the MIC80 against Candida albicans amounted to 0.26 µg/mL (≈ 0.782 µM).
The same measure, in the same setting: in the case of `COCCn1cc(C(=O)NNc2cccc(F)c2)ccc1=O` [Example 76, N′-(3-fluorophenyl)-1-(2-methoxyethyl)-6-oxo-1,6-dihydropyridine-3-carbohydrazide] it was 0.12 µg/mL (≈ 0.393 µM); in that of `CN(C)C(=O)Cn1cc(C(=O)NNc2ccc(F)cc2)ccc1=O` [Example 77, 2-(5-(2-(4-fluorophenyl)hydrazinecarbonyl)-2-oxopyridine-1(2H)-yl)-N,N-dimethylacetamide], 1.04 µg/mL (≈ 3.13 µM).
The same measure, in the same setting: the same measure for `COCCn1cc(C(=O)NNc2ccc(F)cc2)ccc1=O` [Example 78, N′-(4-fluorophenyl)-1-(2-methoxyethyl)-6-oxo-1,6-dihydropyridine-3-carbohydrazide]: 0.24 µg/mL (≈ 0.786 µM); for `O=C1NNc2cc(F)ccc2C(=O)OCC/C=C/Cn2cc1ccc2=O` [Example 79, (1^5E,10E)-5^5-fluoro-1^1,1^2-dihydro-7-oxa-3,4-diaza-1(5,1)-pyridina-5(1,2)-benzenacyclododecaphan-10-ene-1^2,2,6-trione]: 8.93 µg/mL (≈ 25 µM).
Compound `O=C1NNc2ccccc2OCC/C=C/Cn2cc1ccc2=O` [Example 81, (1^5E,9E)-1^1,1^2-dihydro-6-oxa-3,4-diaza-1(5,1)-pyridina-5(1,2)-benzenacycloundecaphan-9-ene-1^2,2-dione] showed an MIC80 against Candida albicans of 1.95 µg/mL (≈ 6.26 µM).

For orientation: MIC80 means the lowest concentration that inhibits either 80% of growth or 80% of the strains tested, depending on the study. As usually defined, the MIC50 is an inhibitory concentration at the 50% level, which refers to growth in some studies and to a panel of isolates in others. A higher MIC50 goes with lower susceptibility.
